Among the data in ChEMBL document CHEMBL4387741, “Optimization of novel reversible Bruton's tyrosine kinase inhibitors identified using Tethering-fragment-based screens” (Bioorg Med Chem, 2019) are inhibition values, retold here.

For assay [1], the target named is Ephrin type-B receptor 3 (Homo sapiens) (UniProt P54753). Put plainly: Inhibition of wild-type human partial length EPHB3 (Q599 to T928 residues) expressed in bacterial expression system at 10 uM by Kinomescan method relative to control.
Assay [2] deals with Serine/threonine-protein kinase tousled-like 2 (Homo sapiens) (UniProt Q86UE8). Put plainly: Inhibition of wild-type human partial length TLK2 (E424 to N749 residues) expressed in bacterial expression system at 10 uM by Kinomescan method relative to control.
The test system of assay [3] is Mast/stem cell growth factor receptor Kit (Homo sapiens), P10721 [V559D]. Put plainly: Inhibition of human partial length KIT V559D mutant (Y545 to D952 residues) expressed in bacterial expression system at 10 uM by Kinomescan method relative to control.
Assay [4] deals with Tyrosine-protein kinase Blk (Homo sapiens) (UniProt P51451). The experiment in a line: Inhibition of wild-type human partial length BLK (G211 to L503 residues) expressed in bacterial expression system at 10 uM by Kinomescan method relative to control.
Assay [5] concerns the target Phosphorylase b kinase gamma catalytic chain, liver/testis isoform (Homo sapiens) (UniProt P15735). The experiment in a line: Inhibition of wild-type human partial length PHKG2 (M1 to W300 residues) expressed in bacterial expression system at 10 uM by Kinomescan method relative to control.
Assay [6] concerns the target Serine/threonine-protein kinase N1 (Homo sapiens) (UniProt Q16512). Put plainly: Inhibition of wild-type human partial length PKN1 (E598 to C948 residues) expressed in bacterial expression system at 10 uM by Kinomescan method relative to control.
The target in assay [7] is Casein kinase I isoform alpha (Homo sapiens) (UniProt P48729). Put plainly: Inhibition of wild-type human partial length CSNK1A1 (M1 to L450 residues) expressed in mammalian expression system at 10 uM by Kinomescan method relative to control.
The test system of assay [8] is Hepatocyte growth factor receptor (Homo sapiens), P08581 [Y1235D]. Put plainly: Inhibition of human partial length MET Y1235D mutant (D1010 to S1367 residues) expressed in bacterial expression system at 10 uM by Kinomescan method relative to control.
Assay [9] addresses Cyclin-dependent kinase 18 (Homo sapiens) (UniProt Q07002). The experiment in a line: Inhibition of wild-type human full length PCTK3 (M3 to F474 residues) expressed in bacterial expression system at 10 uM by Kinomescan method relative to control.
The target of assay [10] is Muscle, skeletal receptor tyrosine-protein kinase (Homo sapiens) (UniProt O15146). Put plainly: Inhibition of wild-type human partial length MUSK (M553 to V869 residues) expressed in bacterial expression system at 10 uM by Kinomescan method relative to control.
Assay [11] concerns the target Serine/threonine-protein kinase PLK3 (Homo sapiens) (UniProt Q9H4B4). Put plainly: Inhibition of wild-type human partial length PLK3 (A42 to L334 residues) expressed in mammalian expression system at 10 uM by Kinomescan method relative to control.
The target of assay [12] is Phosphatidylinositol 3-kinase C2 domain-containing subunit gamma (Homo sapiens) (UniProt O75747). Put plainly: Inhibition of wild-type human partial length PIK3C2G (M1 to I1446 residues) expressed in mammalian expression system at 1 uM by Kinomescan method relative to control.
Assay [13] has as its target Serine/threonine-protein kinase D1 (Homo sapiens) (UniProt Q15139). Put plainly: Inhibition of wild-type human partial length PRKD1 (G551 to E870 residues) expressed in bacterial expression system at 1 uM by Kinomescan method relative to control.
In assay [14] the target is Mitogen-activated protein kinase kinase kinase 10 (Homo sapiens) (UniProt Q02779). Put plainly: Inhibition of wild-type human partial length MLK2 (V52 to W380 residues) expressed in bacterial expression system at 1 uM by Kinomescan method relative to control.
For assay [15], the target named is Casein kinase II subunit alpha' (Homo sapiens) (UniProt P19784). Put plainly: Inhibition of wild-type human full length CSNK2A2 (M1 to R350 residues) expressed in mammalian expression system at 1 uM by Kinomescan method relative to control.
Assay [16] addresses Protein kinase C theta type (Homo sapiens) (UniProt Q04759). Put plainly: Inhibition of wild-type human partial length PRKCQ (L350 to S706 residues) expressed in bacterial expression system at 1 uM by Kinomescan method relative to control.
Assay [17] concerns the target cAMP-dependent protein kinase catalytic subunit PRKX (Homo sapiens) (UniProt P51817). The experiment in a line: Inhibition of wild-type human partial length PRKX (M1 to F358 residues) expressed in bacterial expression system at 1 uM by Kinomescan method relative to control.
For assay [18], the target named is Dual specificity protein kinase CLK4 (Homo sapiens) (UniProt Q9HAZ1). Put plainly: Inhibition of wild-type human partial length CLK4 (R135 to K481 residues) expressed in bacterial expression system at 1 uM by Kinomescan method relative to control.
The target in assay [19] is Protein-tyrosine kinase 2-beta (Homo sapiens) (UniProt Q14289). The experiment in a line: Inhibition of wild-type human full length PYK2 (M1 to E967 residues) expressed in bacterial expression system at 1 uM by Kinomescan method relative to control.
Assay [20] deals with Casein kinase I isoform gamma-1 (Homo sapiens) (UniProt Q9HCP0). Put plainly: Inhibition of wild-type human partial length CSNK1G1 (T15 to S353 residues) expressed in bacterial expression system at 1 uM by Kinomescan method relative to control.
The target of assay [21] is Activin receptor type-2B (Homo sapiens) (UniProt Q13705). The experiment in a line: Inhibition of wild-type human ACVR2B (H169 to D504 residues) expressed in bacterial expression system at 1 uM by Kinomescan method relative to control.
Assay [22] concerns the target Cyclin-dependent kinase 13 (Homo sapiens) (UniProt Q14004). Put plainly: Inhibition of wild-type human partial length CDC2L5 (H675 to S1054 residues) expressed in mammalian expression system at 1 uM by Kinomescan method relative to control.
Assay [23] deals with Serine/threonine-protein kinase MAK (Homo sapiens) (UniProt P20794). Put plainly: Inhibition of wild-type human partial length MAK (M1 to P314 residues) expressed in bacterial expression system at 1 uM by Kinomescan method relative to control.
Assay [24] concerns the target Serine/threonine-protein kinase TAO3 (Homo sapiens) (UniProt Q9H2K8). Put plainly: Inhibition of wild-type human partial length TAOK3 (M1 to T316 residues) expressed in mammalian expression system at 1 uM by Kinomescan method relative to control.
Assay [25] addresses Calcium/calmodulin-dependent protein kinase type 1G (Homo sapiens) (UniProt Q96NX5). Put plainly: Inhibition of wild-type human partial length CAMK1G (M1 to A342 residues) expressed in bacterial expression system at 1 uM by Kinomescan method relative to control.
The target in assay [26] is Receptor tyrosine-protein kinase erbB-3 (Homo sapiens) (UniProt P21860). The experiment in a line: Inhibition of wild-type human partial length ERBB3 (G684 to A987 residues) expressed in mammalian expression system at 1 uM by Kinomescan method relative to control.
Assay [27] deals with Ribosomal protein S6 kinase beta-1 (Homo sapiens) (UniProt P23443). The experiment in a line: Inhibition of wild-type human partial length S6K1 (M1 to S421 residues) expressed in mammalian expression system at 1 uM by Kinomescan method relative to control.

With `O=C(Nc1cccc([C@H]2CCCN(c3ncnc4[nH]ccc34)C2)c1)Nc1ccccc1N1CCCC1`, the inhibition in assay [1] is 100%; in [2] it was 89%; in [3], 0.15%; in [4] it was 43%; in [5], 83%; in assay [6] it was 100%. The inhibition in assay [7] came to 62%; in [8], 78%; in [9], 70%; in assay [10], 97%; in assay [11] it was 65%.
As for `O=C(Nc1cccc([C@@H]2CN(c3ncnc4[nH]ccc34)CCN2CCO)c1)Nc1c(F)cccc1N1CCCC1`, the inhibition in assay [12] stood at 95%; in [13] it was 100%; in assay [14], 74%; in [15] it was 81%; in assay [16], 95%; in assay [17], 95%. For the same molecule, the inhibition in assay [18] was determined as 100%; in assay [19] it was 84%; in assay [20], 100%; in assay [21], 100%; in assay [22], 96%; in [23] it was 94%. For the same molecule, the inhibition stood at 88% in [24], 100% in assay [25], 74% in [26] and 48% in [27].
